Results published in PubChem BioAssay (NCI).
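96-well plates; 48 h exposure; 5 concentrations. Endpoints by linear interpolation between flanking doses. Not reached: highest tested concentration assigned. Here, GI50 denotes the concentration required for 50% inhibition of growth. TGI: total growth inhibition.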

What was measured:
Experiment in all cases: NCI-60 cell line screen, 48 h
786-0 renal = system: 786-0 renal
A498 renal = system: A498 renal
A549 NSCLC = system: A549 NSCLC
ACHN renal = system: ACHN renal
BT-549 breast = system: BT-549 breast
CAKI-1 renal = system: CAKI-1 renal
CCRF-CEM leukemia = system: CCRF-CEM leukemia
COLO 205 colon = system: COLO 205 colon
DU-145 prostate = system: DU-145 prostate
EKVX NSCLC = system: EKVX NSCLC
HCC-2998 colon = system: HCC-2998 colon
HCT-116 colon = system: HCT-116 colon
HCT-15 colon = system: HCT-15 colon
HL-60(TB) leukemia = system: HL-60(TB) leukemia
HOP-62 NSCLC = system: HOP-62 NSCLC
HOP-92 NSCLC = system: HOP-92 NSCLC
HS 578T breast = system: HS 578T breast
HT29 colon = system: HT29 colon
IGROV1 ovarian = system: IGROV1 ovarian
K-562 leukemia = system: K-562 leukemia
KM12 colon = system: KM12 colon
LOX IMVI melanoma = system: LOX IMVI melanoma
M14 melanoma = system: M14 melanoma
MALME-3M melanoma = system: MALME-3M melanoma
MCF7 breast = system: MCF7 breast
MDA-MB-231 breast = system: MDA-MB-231 breast
MDA-MB-435 = system: MDA-MB-435
MOLT-4 leukemia = system: MOLT-4 leukemia
NCI-H226 lung = system: NCI-H226 lung
NCI-H23 lung = system: NCI-H23 lung
NCI-H460 lung = system: NCI-H460 lung
NCI-H522 lung = system: NCI-H522 lung
NCI/ADR-RES ovarian = system: NCI/ADR-RES ovarian
OVCAR-3 ovarian = system: OVCAR-3 ovarian
OVCAR-4 ovarian = system: OVCAR-4 ovarian
OVCAR-5 ovarian = system: OVCAR-5 ovarian
OVCAR-8 ovarian = system: OVCAR-8 ovarian
PC-3 prostate = system: PC-3 prostate
RPMI-8226 leukemia = system: RPMI-8226 leukemia
RXF 393 renal = system: RXF 393 renal
SF-268 CNS = system: SF-268 CNS
SF-295 CNS = system: SF-295 CNS
SF-539 CNS = system: SF-539 CNS
SK-MEL-2 melanoma = system: SK-MEL-2 melanoma
SK-MEL-28 melanoma = system: SK-MEL-28 melanoma
SK-MEL-5 melanoma = system: SK-MEL-5 melanoma
SK-OV-3 ovarian = system: SK-OV-3 ovarian
SN12C renal = system: SN12C renal
SNB-19 CNS = system: SNB-19 CNS
SNB-75 CNS = system: SNB-75 CNS
SR leukemia = system: SR leukemia
SW-620 colon = system: SW-620 colon
T-47D breast = system: T-47D breast
TK-10 renal = system: TK-10 renal
U251 CNS = system: U251 CNS
UACC-257 melanoma = system: UACC-257 melanoma
UACC-62 melanoma = system: UACC-62 melanoma
UO-31 renal = system: UO-31 renal

## COC(=O)CC1=C(C)/C(=C/c2[nH]c(-c3ccc[nH]3)cc2OC)N=C1C
786-0 renal
  GI50: 191 nM
  TGI: 723 nM
A498 renal
  GI50: 1020 nM
  TGI: 5.39 µM
A549 NSCLC
  GI50: 248 nM
  TGI: 3.69 µM
ACHN renal
  GI50: 247 nM
  TGI: 1290 nM
BT-549 breast
  GI50: 196 nM
  TGI: 4.29 µM
CAKI-1 renal
  GI50: 231 nM
  TGI: 2340 nM
CCRF-CEM leukemia
  GI50: 76.8 nM
  TGI: 5.34 µM
COLO 205 colon
  GI50: 123 nM
  TGI: 814 nM
DU-145 prostate
  GI50: 315 nM
  TGI: 12.8 µM
EKVX NSCLC
  GI50: 584 nM
  TGI: 10.1 µM
HCC-2998 colon
  GI50: 207 nM
  TGI: 6.07 µM
HCT-116 colon
  GI50: 81.9 nM
  TGI: 1160 nM
HCT-15 colon
  GI50: 99.2 nM
  TGI: 894 nM
HL-60(TB) leukemia
  GI50: 154 nM
  TGI: 882 nM
HOP-62 NSCLC
  GI50: 192 nM
  TGI: 1120 nM
HOP-92 NSCLC
  GI50: 57.1 nM
  TGI: 337 nM
HS 578T breast
  GI50: 423 nM
  TGI: 2140 nM
HT29 colon
  GI50: 37.5 nM
  TGI: 1190 nM
IGROV1 ovarian
  GI50: 340 nM
  TGI: 6.69 µM
K-562 leukemia
  GI50: 218 nM
  TGI: 10.6 µM
KM12 colon
  GI50: 118 nM
  TGI: 2120 nM
LOX IMVI melanoma
  GI50: 42 nM
  TGI: 159 nM
M14 melanoma
  GI50: 272 nM
  TGI: 863 nM
MALME-3M melanoma
  GI50: 720 nM
  TGI: 2350 nM
MCF7 breast
  GI50: 82.8 nM
  TGI: 733 nM
MDA-MB-231 breast
  GI50: 68.1 nM
  TGI: 994 nM
MDA-MB-435
  GI50: 311 nM
  TGI: 1950 nM
MOLT-4 leukemia
  GI50: 170 nM
  TGI: 3.48 µM
NCI-H226 lung
  GI50: 68 nM
  TGI: 881 nM
NCI-H23 lung
  GI50: 325 nM
  TGI: 3.09 µM
NCI-H460 lung
  GI50: 179 nM
  TGI: 2200 nM
NCI-H522 lung
  GI50: 215 nM
  TGI: 1270 nM
NCI/ADR-RES ovarian
  GI50: 324 nM
  TGI: 2340 nM
OVCAR-3 ovarian
  GI50: 204 nM
  TGI: 1360 nM
OVCAR-4 ovarian
  GI50: 147 nM
  TGI: 4.03 µM
OVCAR-5 ovarian
  GI50: 195 nM
  TGI: 6.06 µM
OVCAR-8 ovarian
  GI50: 236 nM
  TGI: 1020 nM
PC-3 prostate
  GI50: 210 nM
  TGI: 11.2 µM
RPMI-8226 leukemia
  GI50: 44.9 nM
  TGI: 499 nM
RXF 393 renal
  GI50: 61.1 nM
  TGI: 1080 nM
SF-268 CNS
  GI50: 388 nM
  TGI: 10.9 µM
SF-295 CNS
  GI50: 332 nM
  TGI: 1690 nM
SF-539 CNS
  GI50: 331 nM
  TGI: 2270 nM
SK-MEL-2 melanoma
  GI50: 149 nM
  TGI: 354 nM
SK-MEL-28 melanoma
  GI50: 456 nM
  TGI: 2530 nM
SK-MEL-5 melanoma
  GI50: 46.1 nM
  TGI: 107 nM
SK-OV-3 ovarian
  GI50: 581 nM
  TGI: 4.19 µM
SN12C renal
  GI50: 458 nM
  TGI: 9.19 µM
SNB-19 CNS
  GI50: 1350 nM
  TGI: 14.2 µM
SNB-75 CNS
  GI50: 137 nM
  TGI: 2160 nM
SR leukemia
  GI50: 133 nM
  TGI: 677 nM
SW-620 colon
  GI50: 148 nM
  TGI: 1360 nM
T-47D breast
  GI50: 255 nM
  TGI: 1520 nM
TK-10 renal
  GI50: 214 nM
  TGI: 3.41 µM
U251 CNS
  GI50: 175 nM
  TGI: 1810 nM
UACC-257 melanoma
  GI50: 282 nM
  TGI: 1120 nM
UACC-62 melanoma
  GI50: 216 nM
  TGI: 560 nM
UO-31 renal
  GI50: 187 nM
  TGI: 633 nM
